Reference: ChEMBL document CHEMBL1152761, “Synthesis of novel substituted pyrazole-5-carbohydrazide hydrazone derivatives and discovery of a potent apoptosis inducer in A549 lung cancer cells” (Bioorg Med Chem, 2009)
The source made the active and inactive calls. The calls are words filed in the database; no cut-off is given here.

Assays:
Assay type in all cases: functional, cell-based
A549 [1] = assay: Growth inhibition of human A549 cells after 48 hrs by MTT assay; details: for IC50: A549, 48 h
A549 [2] = assay: Induction of apoptosis in human A549 cells assessed as cell shrinkage like morphological changes at 1 uM after 48 hrs by light microscopy
A549 [3] = assay: Induction of apoptosis in human A549 cells assessed as DNA fragmentation after 48 hrs by acridine orange staining
A549 [4] = assay: Induction of apoptosis in human A549 cells assessed as DNA fragmentation after 48 hrs by TUNEL assay
A549 [5] = assay: Induction of necrosis in human A549 cells assessed as LDH release at 0.1 uM after 24 to 48 hrs
A549 [6] = assay: Induction of necrosis in human A549 cells assessed as LDH release at 0.5 uM after 24 to 48 hrs
A549 [7] = assay: Induction of necrosis in human A549 cells assessed as LDH release at 1 uM after 24 to 48 hrs

Row | Structure (SMILES) | Activity (A549 [1]) | IC50 (A549 [1]) [µM] | further results
1 | C/C(=N\NC(=O)c1cc(-c2ccc(Cl)cc2)nn1Cc1ccc(C(C)(C)C)cc1)c1cc(Cl)cc(Cl)c1O | Dose-dependent effect | 7.9 | 
2 | C/C(=N\NC(=O)c1cc(-c2ccccc2)nn1Cc1ccc(C(C)(C)C)cc1)c1cc(C)ccc1O | Dose-dependent effect | 6.1 | 
3 | C/C(=N\NC(=O)c1cc(-c2ccccc2)nn1Cc1ccc(C(C)(C)C)cc1)c1cc(Cl)cc(Cl)c1O | Dose-dependent effect | 3.17 | 
4 | COc1ccc(-c2cc(C(=O)N/N=C(\C)c3cc(Cl)ccc3O)n(Cc3ccc(C(C)(C)C)cc3)n2)cc1 | Dose-dependent effect | 9.62 | 
5 | C/C(=N\NC(=O)c1cc(-c2ccccc2)nn1Cc1ccc(C(C)(C)C)cc1)c1cc(Cl)ccc1O | Dose-dependent effect | 2.77 | 
6 | COc1ccc(-c2cc(C(=O)N/N=C(\C)c3cc(C)ccc3O)n(Cc3ccc(C(C)(C)C)cc3)n2)cc1 | Dose-dependent effect | 10.4 | 
7 | C/C(=N\NC(=O)c1cc(-c2ccc(Cl)cc2)nn1Cc1ccc(C(C)(C)C)cc1)c1cc(C)ccc1O | Dose-dependent effect | 2.49 | 
8 | COc1ccc(-c2cc(C(=O)N/N=C(\C)c3cc(Cl)cc(Cl)c3O)n(Cc3ccc(C(C)(C)C)cc3)n2)cc1 | Dose-dependent effect | 2.08 | 
9 | C/C(=N\NC(=O)c1cc(-c2ccc(Cl)cc2)nn1Cc1ccc(C(C)(C)C)cc1)c1cc(Cl)ccc1O | Dose-dependent effect | 0.28 | Activity (A549 [2]): Active; Activity (A549 [3]): Active; Activity (A549 [4]): Active; Activity (A549 [5]): inactive; Activity (A549 [6]): inactive; Activity (A549 [7]): inactive
